# Assay results reported in patent US6379930B1, “Stabilization of nucleic acid amplification cocktails” (Applied Gene Technologies, Inc., priority 1999, dated 2002).
# Legend:
# [1] = system: PCR of whole genomic mycobacterial DNA (Taq polymerase, primers Tb11 and Tb12); test: Reversible inhibition of PCR amplification by DNA binding ligand, product analyzed by gel electrophoresis; type: biochemical
# Procedure: AMT is purchased from Sigma Chem. Co., St. Louis, Mo. A stock solution of 5 mg/mL AMT is prepared in de-ionized water. An amplification cocktail is prepared containing 200 picomoles of primers Tb11 and Tb12 (Devallois et al., J. Clin. Microbiol., 35:2669-73 (1997)), 1.25 units of Taq polymerase/100 μL, 200 μM dNTPs and 0.05 mg/mL AMT in a Tris-EDTA buffer, pH 7. A corresponding solution without AMT is prepared as a control.
# Amplification is performed in Eppendorf tubes to which are added 0.5 μg of whole genomic mycobacterial DNA in 50 μl of buffer and either 1 μl or 10 μl of the amplification cocktail. Final volume is adjusted to 100 μl with the aqueous buffer solution (without AMT) so that the final concentrations of all PCR components, except AMT, is the same in all replicates. Controls received an amplification cocktail without AMT.
# PCR amplification is performed for 45 cycles (92° C.-56° C.-72° C.; denaturation, annealing, extension) and the product analyzed by gel electrophoresis. […]
# [2] = system: nucleic acids; conditions: Haq et al. 1997; cited from earlier work
# [3] = system: ligase chain reaction; conditions: Notomi et al. 1998; cited from earlier work
# [4] = system: transcription mediated amplification reaction; conditions: Della-Latta et al. 1999; cited from earlier work
compound,measurement,setting,value
"Cc1oc2c(C)c3oc(=O)cc(C)c3cc2c1CN [AMT, 4′-aminomethyltrioxsalen]",amplification product in PCR,"[1]; 0.5 μg/mL AMT, 45 cycles",detectable amplification product is produced
same,inhibition of the PCR,"[1]; 5 μg/mL AMT, 45 cycles",complete inhibition
same,amount of amplification product,[1]; lower concentrations of AMT: 5 ng/mL and 0.5 ng/mL,continues to increase
CN1CCN(c2ccc3[nH]c(-c4ccc5[nH]c(-c6ccc(O)cc6)nc5c4)nc3c2)CC1 [Hoechst 33258],affinity for nucleic acid,[2],≤ 3.2e+08 M⁻¹
O=P(O)(O)O [phosphate ion],concentration inhibitory for a ligase chain reaction,[3],above 1.2 mM
same,inhibitory concentration for a transcription mediated reaction,[4],about 0.7 mM
